Experimental data taken from patent US20100160454A1, “ANTIMICROBIAL AGENTS, COMPOSITIONS AND PRODUCTS CONTAINING THE SAME, AND METHODS OF USING THE COMPOSITIONS AND PRODUCTS” (Eastman Chemical Company, priority 2008, published 2010).

Key:
Experiment in all cases: Microbiological challenge testing in BPW broth, graded subculture counts
Assay type in all cases: cell-based
[1] = test system: Burkholderia cepacia Wild type; conditions: B. cepacia
Experimental: (§1) The microorganisms in the table below were used in challenge tests. They were either ATCC (American Type Culture Collection) or “wild type” as indicated. Wild type organisms were problematic organisms previously isolated from chemical products.
(§2) All of the microorganisms were grown in Tryptose Soy Broth (TSB), DIFCO™ available from Becton, Dickinson and Company, containing 1% dextrose. Candida albicans and Aspergillus niger, were incubated at 22° C.+/−2° C. for at least 96 hours. All bacteria were incubated at 35° C.+/−2° C. in a humidified incubator for at least 96 hours.
(§3) The following procedure was followed to determine the amount of each challenge material (inoculum broth) needed to produce a 10^8 CFU/mL challenge, which is equivalent to a final test-sample microbial concentration of 10^5 to 10^6 CFU/mL (CFU=colony forming units).
(§4) Using a sterile pipette, 1 mL of the growth from each TSB culture was transferred into tubes of 9 mL buffered water (pH 7.2 phosphate buffer) and mixed thoroughly. This was repeated to make serial 1:10 dilutions. Then, 0.1 mL of each sample and dilution was inoculated onto agar plates to produce the equivalent of a further 1:10 dilution. (C. albicans and A. niger were inoculated onto SABD and bacteria were inoculated onto Plate Count Agar (PCA), DIFCO™ available from Becton, Dickinson and Company.) (The normal volume plated for most samples was 0.1 mL. Some samples that could be very low in micro-organisms (high dilutions) were plated using 0.5 mL of inoculum, in order to produce reproducible counts.) The samples were distributed on the plates using the spread-plate technique. The spread-plate technique is carried out by spreading the sample over the entire plate surface using a sterile spreading rod while rotating the plate with a rotary auto-plater. After the inoculum was absorbed completely by the agar, each plate was inverted and incubated (fungi at 22° C.+/−2° C. and bacteria at 35° C.+/−2° C.).
(§5) After incubation for at least 48 hours, colonies that had developed on the agar plates were counted (CFU) and recorded with the corresponding dilution. If counting had to be delayed temporarily, plates were refrigerated, preferably no more than 24 hours, until they could be counted. The number of CFU/mL was determined by multiplying the plate count by the dilution factor of the plate counted.
(§6) Turbidity in Nepholemetric Turbidity Units (NTU) was measured for each serial dilution using the HF-Micro 100 Model Turbidimeter. For each microorganism, the plate counts were compared to the turbidity readings.
(§7) Control substrates (“broth alone”) were prepared for each microorganism separately in triplicate by adding 13.5 mL of Buffered Peptone Water broth (BPW) containing 1% dextrose to each 20-mL glass tube, then adding 1.5 mL challenge material to produce a final concentration at time zero of 10^5 to 10^6 CFU/mL and a total volume of 15 mL.
(§8) Test sample substrates were prepared containing each test material listed below at the concentrations shown for challenge testing with each microorganism separately. Sample substrates were prepared in triplicate, except the substrates containing butoxyethanol which were prepared in duplicate. Substrates were prepared by adding BPW containing 1% dextrose to each 20-mL glass tube, then adding the test material in the amount appropriate to achieve the desired weight/volume percent and to achieve a total volume of BPW plus dextrose plus test material of 13.5 mL. Then 1.5 mL challenge material was added to produce a final concentration at time zero of 10^5 to 10^6 CFU/mL and a total test sample substrate volume of 15 mL.

[2] = test system: Escherichia coli ATCC 25922; conditions: E. Coli
Experimental: as §1, §2, §3, §4, §5, §6, §7, §8

[3] = test system: Streptococcus mutans ATCC 35668
Experimental: as §1, §2, §3, §4, §5, §6, §7, §8

## CC(O)CO (stereo not drawn) [PG, propylene glycol]
[1]; 0.5% (wt/vol), 3 day
  Grade: 5 (More than 10,000 colonies estimated (thus more than 100,000 CFU/mL))
[1]; 0.5% (wt/vol), 14 day
  Grade: 5 (More than 10,000 colonies estimated (thus more than 100,000 CFU/mL))
[1]; 0.5% (wt/vol), 30 day
  Grade: 5 (More than 10,000 colonies estimated (thus more than 100,000 CFU/mL))
[1]; 1.25% (wt/vol), 3 day
  Grade: 5 (More than 10,000 colonies estimated (thus more than 100,000 CFU/mL))
[1]; 1.25% (wt/vol), 14 day
  Grade: 5 (More than 10,000 colonies estimated (thus more than 100,000 CFU/mL))
[1]; 1.25% (wt/vol), 30 day
  Grade: 5 (More than 10,000 colonies estimated (thus more than 100,000 CFU/mL))
[1]; 2.5% (wt/vol), 3 day
  Grade: 5 (More than 10,000 colonies estimated (thus more than 100,000 CFU/mL))
[1]; 2.5% (wt/vol), 14 day
  Grade: 5 (More than 10,000 colonies estimated (thus more than 100,000 CFU/mL))
[1]; 2.5% (wt/vol), 30 day
  Grade: 5 (More than 10,000 colonies estimated (thus more than 100,000 CFU/mL))
[1]; 5.0% (wt/vol), 3 day
  Grade: 4 (1000 to 10,000 colonies countable (thus 10,000 CFU/mL to 100,000 CFU/mL))
[1]; 5.0% (wt/vol), 14 day
  Grade: 4 (1000 to 10,000 colonies countable (thus 10,000 CFU/mL to 100,000 CFU/mL))
[1]; 5.0% (wt/vol), 30 day
  Grade: 4 (1000 to 10,000 colonies countable (thus 10,000 CFU/mL to 100,000 CFU/mL))
[2]; 0.5% (wt/vol), 3 day
  Grade: 5 (More than 10,000 colonies estimated (thus more than 100,000 CFU/mL))
[2]; 0.5% (wt/vol), 14 day
  Grade: 5 (More than 10,000 colonies estimated (thus more than 100,000 CFU/mL))
[2]; 0.5% (wt/vol), 30 day
  Grade: 5 (More than 10,000 colonies estimated (thus more than 100,000 CFU/mL))
[2]; 1.25% (wt/vol), 3 day
  Grade: 5 (More than 10,000 colonies estimated (thus more than 100,000 CFU/mL))
[2]; 1.25% (wt/vol), 14 day
  Grade: 4 (1000 to 10,000 colonies countable (thus 10,000 CFU/mL to 100,000 CFU/mL))
[2]; 1.25% (wt/vol), 30 day
  Grade: 4 (1000 to 10,000 colonies countable (thus 10,000 CFU/mL to 100,000 CFU/mL))
[2]; 2.5% (wt/vol), 3 day
  Grade: 5 (More than 10,000 colonies estimated (thus more than 100,000 CFU/mL))
[2]; 2.5% (wt/vol), 14 day
  Grade: 4 (1000 to 10,000 colonies countable (thus 10,000 CFU/mL to 100,000 CFU/mL))
[2]; 2.5% (wt/vol), 30 day
  Grade: 4 (1000 to 10,000 colonies countable (thus 10,000 CFU/mL to 100,000 CFU/mL))
[2]; 5.0% (wt/vol), 3 day
  Grade: 4 (1000 to 10,000 colonies countable (thus 10,000 CFU/mL to 100,000 CFU/mL))
[2]; 5.0% (wt/vol), 14 day
  Grade: 4 (1000 to 10,000 colonies countable (thus 10,000 CFU/mL to 100,000 CFU/mL))
[2]; 5.0% (wt/vol), 30 day
  Grade: 4 (1000 to 10,000 colonies countable (thus 10,000 CFU/mL to 100,000 CFU/mL))
[3]; 0.5% weight/volume
  S. mutans growth grade, 3 day: 5 (More than 10,000 colonies estimated (thus more than 100,000 CFU/mL))
  S. mutans growth grade, 13 day: 5 (More than 10,000 colonies estimated (thus more than 100,000 CFU/mL))
  S. mutans growth grade, 30 day: 5 (More than 10,000 colonies estimated (thus more than 100,000 CFU/mL))
[3]; 1.25% weight/volume
  S. mutans growth grade, 3 day: 4 (1000 to 10,000 colonies countable (thus 10,000 CFU/mL to 100,000 CFU/mL))
  S. mutans growth grade, 13 day: 4 (1000 to 10,000 colonies countable (thus 10,000 CFU/mL to 100,000 CFU/mL))
  S. mutans growth grade, 30 day: 4 (1000 to 10,000 colonies countable (thus 10,000 CFU/mL to 100,000 CFU/mL))
[3]; 2.5% weight/volume
  S. mutans growth grade, 3 day: 4 (1000 to 10,000 colonies countable (thus 10,000 CFU/mL to 100,000 CFU/mL))
  S. mutans growth grade, 13 day: 4 (1000 to 10,000 colonies countable (thus 10,000 CFU/mL to 100,000 CFU/mL))
  S. mutans growth grade, 30 day: 4 (1000 to 10,000 colonies countable (thus 10,000 CFU/mL to 100,000 CFU/mL))
[3]; 5.0% weight/volume
  S. mutans growth grade, 3 day: 4 (1000 to 10,000 colonies countable (thus 10,000 CFU/mL to 100,000 CFU/mL))
  S. mutans growth grade, 13 day: 4 (1000 to 10,000 colonies countable (thus 10,000 CFU/mL to 100,000 CFU/mL))
  S. mutans growth grade, 30 day: 4 (1000 to 10,000 colonies countable (thus 10,000 CFU/mL to 100,000 CFU/mL))
